According to US20230219965A1 (KSQ Therapeutics, Inc., priority 2020, published 2023):
Like-named read-outs stand apart in the source and are kept apart here.

What was measured:
USP1/UAF1 enzyme = USP1/UAF1 enzyme (Homo sapiens, UniProt O94782); assay: USP1/UAF1 deubiquitination assay (ubiquitin-rhodamine 110 substrate); type: biochemical; details: read-out: USP1 IC50 (Ub-Rho)
Method in brief: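 0.05 nM USP1/UAF1 was preincubated 10 min with compounds (dose response from 10 μM) in 50 mM Tris-HCl pH 7.8, 0.5 mM EDTA, 0.01% BSA, 1 mM DTT, 0.01% Tween-20. 150 nM ubiquitin-rhodamine 110 started the reaction, read kinetically 30 min at Ex480/Em540; IC50 by four-parameter fit versus no-enzyme and DMSO controls.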

[1] = system: Ub-PCNA levels in the nucleus of ES2 cells (USP1 activity); assay: ES2 Ub-PCNA immunofluorescence (IF) assay; type: cell-based; details: Homo sapiens, ES-2; ES2 cells, 3 hours, Ub-PCNA immunofluorescence; read-out: USP1 IC50 (Ub-PCNA)
Method in brief: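 Cells plated overnight, then compound-treated for 3 h at 37° C (0.3% DMSO final), methanol-fixed and stained with anti-Ub-PCNA plus DAPI. Per-nucleus Ub-PCNA intensity imaged; cells above the 95% cutoff of untreated wells counted as positive, and percent positive cells used to derive AC50.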

[2] = ADME solubility determination in PBS at pH 2.0 and pH 7.4; type: physicochemical; details: phosphate buffered saline, 25 °C, thermodynamic from solid
Method in brief: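 Dried 10 mM DMSO stock residues taken up in PBS pH 7.4 or pH 2.0, shaken 24 h at 25° C. After centrifugation, supernatant quantified by LC-MS/MS against a standard of known concentration, with a dilution factor applied.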

[3] = Liver microsomal metabolic stability, rat liver microsomes (RLM); details: rat, liver microsomes, t1/2 (min) in RLM, 1 μM compound, 1 mg/mL microsomes, NADPH
[4] = Liver microsomal metabolic stability, human liver microsomes (HLM); details: human, liver microsomes
[5] = pH 2, aqueous buffer, PBS pH 2.0, 25° C., read-out: Solubility at pH 2.0
[6] = pH 7.4, aqueous buffer, PBS pH 7.4, 25° C., read-out: Solubility at pH 7.4

USP1/UAF1 enzyme, sequence (O94782 whole entry): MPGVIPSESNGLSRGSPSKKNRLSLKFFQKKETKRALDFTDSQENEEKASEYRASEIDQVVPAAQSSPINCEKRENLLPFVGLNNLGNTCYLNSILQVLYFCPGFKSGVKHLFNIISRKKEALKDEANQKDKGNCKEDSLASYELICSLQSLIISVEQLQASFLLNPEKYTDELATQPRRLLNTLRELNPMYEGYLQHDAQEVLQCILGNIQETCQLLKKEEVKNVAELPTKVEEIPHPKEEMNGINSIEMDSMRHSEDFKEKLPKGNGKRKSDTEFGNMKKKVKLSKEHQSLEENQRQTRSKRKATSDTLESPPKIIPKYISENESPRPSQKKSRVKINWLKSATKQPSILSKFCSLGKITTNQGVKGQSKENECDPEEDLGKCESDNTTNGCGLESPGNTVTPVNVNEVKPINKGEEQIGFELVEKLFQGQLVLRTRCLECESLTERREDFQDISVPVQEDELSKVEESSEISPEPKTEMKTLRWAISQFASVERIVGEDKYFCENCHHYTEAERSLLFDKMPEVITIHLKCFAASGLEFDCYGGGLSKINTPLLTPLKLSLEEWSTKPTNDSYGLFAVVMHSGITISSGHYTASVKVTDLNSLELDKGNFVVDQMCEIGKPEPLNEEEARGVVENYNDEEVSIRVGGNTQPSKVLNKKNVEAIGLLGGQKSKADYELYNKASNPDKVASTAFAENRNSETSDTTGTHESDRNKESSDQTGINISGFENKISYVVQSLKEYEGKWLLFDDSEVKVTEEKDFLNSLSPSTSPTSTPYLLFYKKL
USP1/UAF1 enzyme, sequence (Q8TAF3 whole entry partner): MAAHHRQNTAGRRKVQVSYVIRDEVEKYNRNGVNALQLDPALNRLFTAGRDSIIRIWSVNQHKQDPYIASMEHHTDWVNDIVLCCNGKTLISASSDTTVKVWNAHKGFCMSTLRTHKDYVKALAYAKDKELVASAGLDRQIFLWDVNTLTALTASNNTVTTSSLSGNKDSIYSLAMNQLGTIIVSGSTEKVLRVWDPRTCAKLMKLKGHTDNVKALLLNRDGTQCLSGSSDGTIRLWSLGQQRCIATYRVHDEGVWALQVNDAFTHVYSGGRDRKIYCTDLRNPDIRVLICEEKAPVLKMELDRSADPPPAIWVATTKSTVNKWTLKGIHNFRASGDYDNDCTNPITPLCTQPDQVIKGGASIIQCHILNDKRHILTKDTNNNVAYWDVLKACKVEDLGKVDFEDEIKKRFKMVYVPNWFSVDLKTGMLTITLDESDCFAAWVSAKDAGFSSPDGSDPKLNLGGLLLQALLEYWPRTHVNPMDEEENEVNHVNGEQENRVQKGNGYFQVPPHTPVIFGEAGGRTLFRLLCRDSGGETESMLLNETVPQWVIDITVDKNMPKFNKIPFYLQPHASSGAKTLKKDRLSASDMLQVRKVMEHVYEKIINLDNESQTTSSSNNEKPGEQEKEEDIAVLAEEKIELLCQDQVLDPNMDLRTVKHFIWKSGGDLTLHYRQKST

Row | IC50 (USP1/UAF1 enzyme) [nM] | IC50 [1] [nM] | solubility at 24 h [2, 5] [µM] | solubility at 24 h [2, 6] [µM] | half-life at 1 μM [3] [min] | half-life at 1 μM [4] [min] | Compound
1 | < 100 | 100 to 500 | < 10 | < 10 | < 25 | < 25 | CCn1cc(C(F)(F)F)nc1-c1ccc(CN2C(=O)CCn3nc(-c4c(Cl)cnn4C4(COC)CC4)cc32)cc1F [Example 153]
2 | < 100 | < 100 | < 10 | < 10 | > 25 | > 25 | COc1ncnc(C2CC2)c1-c1nc2n(n1)CCC(=O)N2Cc1ccc(-c2nc(C(F)(F)F)cn2C(C)C)c(F)c1 [Example 164, 2-(4-cyclopropyl-6-methoxypyrimidin-5-yl)-4-(3-fluoro-4-(1-isopropyl-4-(trifluoromethyl)-1H-imidazol-2-yl)benzyl)-6,7-dihydro-[1,2,4]triazolo[1,5-α]pyrimidin-5(4H)-one]
3 | < 100 | 100 to 500 | < 10 | < 10 | > 25 | > 25 | COc1cc(CN2C(=O)CCn3nc(-c4c(Cl)cnn4C(C)C)nc32)ccc1-c1nc(C(F)(F)F)cn1C(C)C [Example 165]
4 | 100 to 500 | 100 to 500 | ≥ 10 | ≥ 10 | > 25 | > 25 | COc1cc(CN2C(=O)CCn3nc(-c4c(OC)ncnc4C4CC4)nc32)ccc1-c1nc(C(F)(F)F)cn1C(C)C [Example 166]
5 | < 100 | < 100 | < 10 | < 10 | > 25 | > 25 | COc1ncnc(C2CC2)c1-c1nc2n(n1)CCC(=O)N2Cc1ccc(-c2nc(C(F)(F)F)cn2C(C)C)cc1 [Example 168]
6 | < 100 | < 100 | ≥ 10 | ≥ 10 | > 25 | > 25 | CCn1cc(C(F)(F)F)nc1-c1ccc(CN2C(=O)CCn3nc(-c4c(OC)ncnc4C4CC4)nc32)cc1 [Example 171]
7 | < 100 | 100 to 500 | ≥ 10 | ≥ 10 | > 25 | > 25 | COc1ncnc(C2CC2)c1-c1nc2n(n1)CCC(=O)N2Cc1ccc(-c2nc(C(F)(F)F)cn2C(C)C)c(Cl)c1 [Example 172]
8 | < 100 | < 100 | ≥ 10 | ≥ 10 | > 25 | > 25 | COc1ncnc(C2CC2)c1-c1nc2n(n1)CCC(=O)N2[C@@H](C)c1ccc(-c2nc(C(F)(F)F)cn2C(C)C)c(F)c1 [Example 173]
9 | < 100 | < 100 | ≥ 10 | ≥ 10 | > 25 | > 25 | COc1ncnc(C2CC2)c1-c1nc2n(n1)CCC(=O)N2[C@H](C)c1ccc(-c2nc(C(F)(F)F)cn2C(C)C)c(F)c1 [Example 174]
10 | < 100 | < 100 | ≥ 10 | ≥ 10 | > 25 | > 25 | CCn1cc(C(F)(F)F)nc1-c1ccc(CN2C(=O)CCn3nc(-c4c(OC)ncnc4C4CC4)nc32)cc1Cl [Example 175]
11 | < 100 | 100 to 500 | < 10 | < 10 | < 25 | < 25 | CCn1cc(C(F)(F)F)nc1-c1ccc([C@@H](C)N2C(=O)CCn3nc(-c4c(Cl)cnn4C(C)C)nc32)cc1OC [Example 180]
12 | < 100 | < 100 | < 10 | < 10 | < 25 | < 25 | CCn1cc(C(F)(F)F)nc1-c1ccc([C@@H](C)N2C(=O)CCn3nc(-c4c(Cl)cnn4C(C)C)nc32)cc1F [Example 182]
13 | < 100 | < 100 | ≥ 10 | ≥ 10 | < 25 | > 25 | CCn1cc(C(F)(F)F)nc1-c1ccc([C@@H](C)N2C(=O)CCn3nc(-c4c(OC)ncnc4C4CC4)nc32)cc1 [Example 184]
14 | < 100 | 100 to 500 | < 10 | < 10 | > 25 | > 25 | CCn1cc(C(F)(F)F)nc1-c1ccc(CN2C(=O)CCn3nc(-c4c(Cl)cnn4C(C)C)nc32)cn1 [Example 186]
15 | 100 to 500 | < 100 | ≥ 10 | ≥ 10 | > 25 | > 25 | COc1ncnc(C2CC2)c1-c1nc2n(n1)CCC(=O)N2[C@@H](C)c1ccc(-c2nc(C(F)(F)F)cn2C(C)C)cc1 [Example 188]

Second part, the molecule before the results:

Row | Compound | IC50 (USP1/UAF1 enzyme) [nM] | IC50 [1] [nM] | solubility at 24 h [2, 5] [µM] | solubility at 24 h [2, 6] [µM] | half-life at 1 μM [3] [min] | half-life at 1 μM [4] [min]
16 | Cc1cnn(C(C)C)c1-c1nn2c(c1Cl)N(Cc1ccc(-c3nc(C(F)(F)F)cn3C)cc1)CCC2 [Example 147, 3-chloro-2-(1-isopropyl-4-methyl-1H-pyrazol-5-yl)-4-(4-(1-methyl-4-(trifluoromethyl)-1H-imidazol-2-yl)benzyl)-4,5,6,7-tetrahydropyrazolo[1,5-α]pyrimidine] | < 100 | < 100 | < 10 | < 10 | < 25 | < 25
17 | Cc1cnn(C(C)C)c1-c1nn2c(c1Cl)N(Cc1ccc(-c3nc(C(F)(F)F)cn3C(C)C)c(F)c1)CCC2 [Example 148] | < 100 | < 100 | < 10 | < 10 | < 25 | < 25
18 | CCn1cc(C(F)(F)F)nc1-c1ccc(CN2C(=O)CCn3nc(-c4c(Cl)cnn4C(C)COC)cc32)cc1 (stereo not drawn) [Example 151] | < 100 | < 100 | < 10 | < 10 | < 25 | < 25
19 | CCn1cc(C(F)(F)F)nc1-c1ccc(CN2C(=O)CCn3nc(-c4c(Cl)cnn4C4(COC)CC4)cc32)cc1 [Example 159] | < 100 | 100 to 500 | < 10 | < 10 | < 25 | > 25
20 | CCn1cc(C(F)(F)F)nc1-c1ccc(CN2C(=O)CCn3nc(-c4c(Cl)cnn4C(C)COC)cc32)cc1F (stereo not drawn) [Example 160] | < 100 | 100 to 500 | < 10 | < 10 | < 25 | < 25
21 | COc1ncnc(C2CC2)c1-c1nc2n(n1)CCC(=O)N2C(C)c1ccc(-c2nc(C(F)(F)F)cn2C(C)C)cc1 (stereo not drawn) [Example 169] | < 100 | 100 to 500 | ≥ 10 | < 10 | > 25 | > 25
22 | COc1ncnc(C2CC2)c1-c1nc2n(n1)CCC(=O)N2Cc1ccc(-c2nc(C(F)(F)F)cn2C)c(F)c1 [Example 170] | < 100 | < 100 | ≥ 10 | ≥ 10 | > 25 | > 25
23 | CCn1cc(C(F)(F)F)nc1-c1c(F)cc(CN2C(=O)CCn3nc(-c4c(OC)ncnc4C4CC4)nc32)cc1OC [Example 176] | < 100 | < 100 | ≥ 10 | ≥ 10 | > 25 | > 25
24 | CC(C)n1cc(C(F)(F)F)nc1-c1ccc([C@H](C)N2C(=O)CCn3nc(-c4c(Cl)cnn4C(C)C)nc32)cc1 [Example 177] | < 100 | < 100 | < 10 | < 10 | > 25 | < 25
25 | CC(C)n1cc(C(F)(F)F)nc1-c1ccc([C@@H](C)N2C(=O)CCn3nc(-c4c(Cl)cnn4C(C)C)nc32)cc1 [Example 178] | < 100 | < 100 | ≥ 10 | < 10 | < 25 | < 25
26 | CCn1cc(C(F)(F)F)nc1-c1ccc([C@H](C)N2C(=O)CCn3nc(-c4c(Cl)cnn4C(C)C)nc32)cc1F [Example 181] | < 100 | < 100 | < 10 | < 10 | > 25 | < 25
27 | CCn1cc(C(F)(F)F)nc1-c1ccc([C@H](C)N2C(=O)CCn3nc(-c4c(OC)ncnc4C4CC4)nc32)cc1 [Example 183] | < 100 | < 100 | ≥ 10 | ≥ 10 | > 25 | < 25
